Converted amounts (≈) assume the structure as drawn. Read-outs that look alike come from different tables or passages of the source.
Assays:
A. baumannii A387 [1] = test: Preliminary MBC without and with sub-inhibitory polymyxin B (Example 4); type: cell-based, Acinetobacter baumannii; settings: for MBC +0.06 μg/ml PB: A. baumannii A387, +0.06 μg/ml polymyxin B; for MBC: Acinetobacter baumannii, A387, A. baumannii A387, without polymyxin B, read-out: MBC without PB
A. baumannii ATCC 19606 [2] = test: as above; type: cell-based, Acinetobacter baumannii; settings: preliminary MBC; for MBC +0.06 μg/ml PB: A. baumannii ATCC 19606, +0.06 μg/ml polymyxin B; for MBC: Acinetobacter baumannii, ATCC19606, A. baumannii ATCC 19606, without polymyxin B, read-out: MBC without PB
A. baumannii A387 [3] = test: MIC determination for Acinetobacter strains (Example 3); type: cell-based; settings: LEV I, CIP R, IPM R, AMK R, TET R
A. baumannii A329 = test: MIC without and with sub-inhibitory polymyxin B (Example 4); type: cell-based, Acinetobacter baumannii; settings: for MIC: Acinetobacter baumannii, A329, A. baumannii A329, without polymyxin B, read-out: MIC without PB
A. baumannii A390 [4] = test: MIC determination for Acinetobacter strains (Example 3); type: cell-based; settings: LEV R, CIP R, MRP R, IPM I, AMK R, TET I
A. baumannii J2 [5] = test: as above; type: cell-based; settings: LEV R, CIP R
A. baumannii A390 [6] = test: MIC without and with sub-inhibitory polymyxin B (Example 4); type: cell-based, Acinetobacter baumannii; settings: for MIC: Acinetobacter baumannii, A390, A. baumannii A390, without polymyxin B, read-out: MIC without PB
A. baumannii A473 = test: MIC determination for Acinetobacter strains (Example 3); type: cell-based; settings: LEV R, CIP R, MRP R, IMP R, AMK R, TET R
A. baumannii J2 [7] = test: Preliminary MBC without and with sub-inhibitory polymyxin B (Example 4); type: cell-based, Acinetobacter baumannii; settings: preliminary MBC; for MBC +[…] PB: A. baumannii J2, +[…] polymyxin B; for MBC: Acinetobacter baumannii, J2, A. baumannii J2, without polymyxin B, read-out: MBC without PB
A. baumannii ATCC 19606 [8] = test: MIC determination for Acinetobacter strains (Example 3); type: cell-based; settings: ATCC19606, reference strain
A. baumannii A489 = test: as above; type: cell-based; settings: LEV R, CIP R, MRP R, IMP R, AMK R, TET R
[9] = test system: 11 strains of A. baumannii and one strain of Acinetobacter sp.; test: Preliminary MBC without and with sub-inhibitory polymyxin B, whole panel (Example 4; also strains not listed separately); type: cell-based; settings: for MBC +0.06 μg/ml PB: A. baumannii A14, +0.06 μg/ml polymyxin B; for MBC +[…] PB: A. baumannii NCTC 13301, +[…] polymyxin B; for MBC: Acinetobacter baumannii, read-out: MBC without PB
A. baumannii A387 [10] = test: MIC without and with sub-inhibitory polymyxin B (Example 4); type: cell-based, Acinetobacter baumannii; settings: for MIC +0.06 μg/ml PB / MIC without PB/MIC + PB: A. baumannii A387; for MIC +0.06 μg/ml PB: +0.06 μg/ml polymyxin B; for MIC without PB/MIC + PB: ratio, PB 0.06 μg/ml; for MIC: Acinetobacter baumannii, A387, A. baumannii A387, without polymyxin B, read-out: MIC without PB
E. faecium 19434 = test: MIC, standard panel of Gram-positive and Gram-negative bacteria (CLSI); type: cell-based, Enterococcus faecium; settings: Enterococcus faecium, 19434; CAMHB; read-out: MIC E. faecium 19434
S. epidermis 12228 = test: as above; type: cell-based, Staphylococcus epidermis; settings: Staphylococcus, 12228; CAMHB; read-out: MIC S. epidermis 12228
S. aureus 25923 HS = test: as above; type: cell-based; settings: Staphylococcus aureus, CAMHB, HS, read-out: MIC S. aureus 25923 HS
S. aureus 25923 = test: as above; type: cell-based, Staphylococcus aureus; settings: Staphylococcus aureus, 25923; CAMHB; read-out: MIC S. aureus 25923
A. Baumanii OXA-51 = test: MIC, panel of quinolone-resistant strains (CLSI); type: cell-based; settings: Acinetobacter baumannii; CIP R, ESBL
E. coli IMP = test: microbe, parasite or virus in culture; settings: Escherichia coli, read-out: MIC E. coli IMP
S. pneumoniae 1027 = test: MIC, panel of quinolone-resistant strains (CLSI); type: cell-based; settings: Streptococcus pneumoniae, LEV R
S. aureus 101 = test: MIC, standard panel of Gram-positive and Gram-negative bacteria (CLSI); type: cell-based, Staphylococcus aureus; settings: Staphylococcus aureus, 101; CAMHB; read-out: MIC S. aureus 101
B. thailandensis = test: microbe, parasite or virus in culture; type: cell-based, Burkholderia thailandensis
P. aeruginosa 27853 = test: MIC, standard panel of Gram-positive and Gram-negative bacteria (CLSI); type: cell-based, Pseudomonas aeruginosa; settings: Pseudomonas aeruginosa, 27853; CAMHB; read-out: MIC P. aeruginosa 27853

Question: How did the “MBC +0.06 μg/ml PB” value (A. baumannii A387 [1]; 1st experiment) turn out when `C[C@@H](O)[C@H]1C(=O)N2C(C(=O)O)=C(SCCN=CN)C[C@H]12` [Imipenem, reference compound] was run?
Answer: Its value is 8 µg/mL.

Question: And the “MBC +0.06 μg/ml PB” value (A. baumannii A387 [1]; 2nd experiment)?
Answer: The value was 8 µg/mL.

Question: What about the MBC (A. baumannii A387 [1]; 1st experiment) of the same compound?
Answer: Its MBC is 16 µg/mL (≈ 53.4 µM).

Question: What about the MBC (A. baumannii A387 [1]; 2nd experiment) of the same compound?
Answer: The MBC was 16 µg/mL (≈ 53.4 µM).

Question: What about the “MBC +0.06 μg/ml PB” value (A. baumannii ATCC 19606 [2]; 2nd experiment) of the same compound?
Answer: Its value is 1 µg/mL.

Question: And the “MBC +0.06 μg/ml PB” value (A. baumannii ATCC 19606 [2]; 1st experiment)?
Answer: The value was 2 µg/mL.

Question: What about the MBC (A. baumannii ATCC 19606 [2]; 2nd experiment) of the same compound?
Answer: Its MBC is 4 µg/mL (≈ 13.4 µM).

Question: What about the MBC (A. baumannii ATCC 19606 [2]; 1st experiment) of the same compound?
Answer: Its MBC is 2 µg/mL (≈ 6.68 µM).

Question: What about the MIC (A. baumannii A387 [3]) of the same compound?
Answer: Its MIC is 16 µg/mL (≈ 53.4 µM).

Question: What about the “MIC +0.06 μg/ml PB” value (A. baumannii A329; A. baumannii A329, +0.06 μg/ml polymyxin B, 2nd experiment, visual reading) of the same compound?
Answer: Its value is 128 µg/mL.

Question: And the “MIC without PB/MIC + PB” value (A. baumannii A329; A. baumannii A329, ratio, PB 0.06 μg/ml, 2nd experiment)?
Answer: The value was no less than 1.

Question: And the MIC (A. baumannii A329; 1st experiment)?
Answer: Its MIC is 128 µg/mL (≈ 428 µM).

Question: What about the MIC (A. baumannii A329; 2nd experiment, visual reading) of the same compound?
Answer: Its MIC is greater than 128 µg/mL.

Question: And the MIC (A. baumannii A390 [4])?
Answer: Its MIC is 16 µg/mL (≈ 53.4 µM).

Question: And the MIC (A. baumannii J2 [5])?
Answer: Its MIC is 4 µg/mL (≈ 13.4 µM).

Question: And the “MIC +0.06 μg/ml PB” value (A. baumannii A390 [6]; A. baumannii A390, +0.06 μg/ml polymyxin B, 2nd experiment, visual reading)?
Answer: The value was 4 µg/mL.

Question: What about the “MIC without PB/MIC + PB” value (A. baumannii A390 [6]; A. baumannii A390, ratio, PB 0.06 μg/ml, 2nd experiment) of the same compound?
Answer: Its value is 4.

Question: What about the MIC (A. baumannii A390 [6]; 1st experiment) of the same compound?
Answer: Its MIC is 16 µg/mL (≈ 53.4 µM).

Question: What about the MIC (A. baumannii A390 [6]; 2nd experiment, visual reading) of the same compound?
Answer: Its MIC is 16 µg/mL (≈ 53.4 µM).

Question: And the MIC (A. baumannii A473)?
Answer: The MIC was 32 µg/mL (≈ 107 µM).

Question: And the “MBC +[…] PB” value (A. baumannii J2 [7]; 2nd experiment)?
Answer: Its value is no more than 0.125 µg/mL.

Question: And the “MBC +[…] PB” value (A. baumannii J2 [7]; 1st experiment)?
Answer: The value was no more than 0.125 µg/mL.

Question: What about the MBC (A. baumannii J2 [7]; 2nd experiment) of the same compound?
Answer: Its MBC is 8 µg/mL (≈ 26.7 µM).

Question: What about the MBC (A. baumannii J2 [7]; 1st experiment) of the same compound?
Answer: Its MBC is 4 µg/mL (≈ 13.4 µM).

Question: And the MIC (A. baumannii ATCC 19606 [8])?
Answer: Its MIC is 2 µg/mL (≈ 6.68 µM).

Question: What about the MIC (A. baumannii A489) of the same compound?
Answer: Its MIC is 128 µg/mL (≈ 428 µM).

Question: What about the “MBC +0.06 μg/ml PB” value ([9]; 1st experiment) of the same compound?
Answer: The value was 1 µg/mL.

Question: What about the “MBC +0.06 μg/ml PB” value ([9]; 2nd experiment) of the same compound?
Answer: The value was 0.5 µg/mL.

Question: And the “MBC +[…] PB” value ([9]; 1st experiment)?
Answer: The value was 16 µg/mL (≈ 53.4 µM).

Question: And the “MBC +[…] PB” value ([9]; 2nd experiment)?
Answer: The value was 0.5 µg/mL (≈ 1.67 µM).

Question: And the MBC ([9]; A. baumannii A14, without polymyxin B, 1st experiment)?
Answer: Its MBC is 2 µg/mL (≈ 6.68 µM).

Question: And the MBC ([9]; A. baumannii A14, without polymyxin B, 2nd experiment)?
Answer: The MBC was 1 µg/mL (≈ 3.34 µM).

Question: What about the MBC ([9]; NCTC13301, A. baumannii NCTC 13301, without polymyxin B, 1st experiment) of the same compound?
Answer: Its MBC is 128 µg/mL (≈ 428 µM).

Question: What about the MBC ([9]; NCTC13301, A. baumannii NCTC 13301, without polymyxin B, 2nd experiment) of the same compound?
Answer: Its MBC is 128 µg/mL (≈ 428 µM).

Question: And the “MIC +0.06 μg/ml PB” value (A. baumannii A387 [10]; 1st experiment)?
Answer: The value was 8 µg/mL.

Question: What about the “MIC +0.06 μg/ml PB” value (A. baumannii A387 [10]; 2nd experiment, visual reading) of the same compound?
Answer: The value was 8 µg/mL.

Question: What about the “MIC without PB/MIC + PB” value (A. baumannii A387 [10]; 1st experiment) of the same compound?
Answer: The value was 2.

Question: What about the “MIC without PB/MIC + PB” value (A. baumannii A387 [10]; 2nd experiment) of the same compound?
Answer: The value was 2.

Question: What about the MIC (A. baumannii A387 [10]; 1st experiment) of the same compound?
Answer: The MIC was 16 µg/mL (≈ 53.4 µM).

Question: And the MIC (A. baumannii A387 [10]; 2nd experiment, visual reading)?
Answer: The MIC was 16 µg/mL (≈ 53.4 µM).

Question: With `Cc1c(-c2ccc(N)cc2)c(F)cn2c(=O)c(C(=O)O)cc(C3CC3)c12` [Compound 7, 8-(4-amino-phenyl)-1-cyclopropyl-7-fluoro-9-methyl-4-oxo-quinolizine-3-carboxylic acid] as the compound, how does the MIC (E. faecium 19434) read?
Answer: Its MIC is 2 µg/mL (≈ 5.68 µM).

Question: And the MIC (S. epidermis 12228)?
Answer: Its MIC is less than 0.008 µg/mL.

Question: What about the MIC (S. aureus 25923 HS) of the same compound?
Answer: Its MIC is 1 µg/mL (≈ 2.84 µM).

Question: What about the MBC (A. baumannii ATCC 19606 [2]; 2nd experiment) of the same compound?
Answer: Its MBC is 0.25 µg/mL (≈ 0.709 µM).

Question: And the MIC (S. aureus 25923)?
Answer: Its MIC is less than 0.008 µg/mL.

Question: What about the MIC (A. Baumanii OXA-51) of the same compound?
Answer: Its MIC is 8 µg/mL (≈ 22.7 µM).

Question: And the MIC (E. coli IMP)?
Answer: The MIC was less than 0.008 µg/mL.

Question: And the MIC (A. baumannii A390 [4])?
Answer: Its MIC is 8 µg/mL (≈ 22.7 µM).

Question: And the MIC (S. pneumoniae 1027)?
Answer: The MIC was 4 µg/mL (≈ 11.4 µM).

Question: And the MIC (A. baumannii A390 [6]; 1st experiment)?
Answer: Its MIC is 8 µg/mL (≈ 22.7 µM).

Question: And the MIC (A. baumannii A473)?
Answer: The MIC was 4 µg/mL (≈ 11.4 µM).

Question: And the MBC (A. baumannii J2 [7]; 2nd experiment)?
Answer: The MBC was 4 µg/mL (≈ 11.4 µM).

Question: And the MIC (S. aureus 101)?
Answer: The MIC was 1 µg/mL (≈ 2.84 µM).

Question: What about the MIC90 (B. thailandensis; Burkholderia thailandensis, read-out: MIC90 B. thailandensis) of the same compound?
Answer: The MIC90 was less than 0.048 µg/mL.

Question: What about the “Dilutions improvement shift on B. thailandensis MIC90 (between pH 7 and pH 5)” value (B. thailandensis; pH 7 versus pH 5) of the same compound?
Answer: Its value is “Yes, 4×”.

Question: What about the MIC (P. aeruginosa 27853) of the same compound?
Answer: Its MIC is 4 µg/mL (≈ 11.4 µM).

Question: And the MIC (A. baumannii A489)?
Answer: Its MIC is 8 µg/mL (≈ 22.7 µM).

Reference: US10155021B2, “Antimicrobial 4-oxoquinolizines” (Emergent Product Development Gaithersburg Inc., priority 2011, dated 2018)
